Assay results taken from patent US10195248B2, “Use of haptoglobin subunit for promoting wound healing” (Taipei Medical University, priority 2016, dated 2019).

Test system: low-density lipoproteins (LDL)
Assay: Anti-oxidant test (TBARS production, Cu-induced LDL oxidation)
Assay type: biochemical
Settings: 5 μM CuSO4, 20 μg LDL, 37° C., 2 hours; TBARS absorbance 540 nm; FIG. 1
Method: In this experiment, production level of thiobarbituric acid-reactive substances (TBARS) was measured to determine oxidization level of low-density lipoproteins (LDL). Specifically, […], of each test article was mixed with 5 μM copper (II) sulfate (CuSO4) and 20 μg of LDL, and then incubated at 37° C. for 2 hours. 250 μL of 20% tricholoroacetic acid was added to the precipitated protein. After that, 250 μL of 0.67% 2-thiobarbituric acid was added to the obtained mixture and incubated at 80° C. for 30 minutes. The final resultant was separated to give a supernatant by centrifugation at 3,000 g for 5 minutes. 300 μL of the supernatant was taken to a 96-well plate to measure its absorbance under 540 nm.

Compound | inhibitory concentration (IC50) for anti-oxidant activity (rank order)
CC(C)(Sc1cc(C(C)(C)C)c(O)c(C(C)(C)C)c1)Sc1cc(C(C)(C)C)c(O)c(C(C)(C)C)c1 [probucol, Probucol] | follow it sequentially
Hp β subunit: haptoglobin β subunit | follow it sequentially
